# Results: US7157241B2, “Serine protease genes related to DPPIV” (Ferring BV, priority 2000, dated 2007)
# Square brackets hold non-standard residues; d marks the D form. Peptide text beside a SMILES is read from it. * marks the point of attachment. Sta = CC(C)C[C@H](N)[C@@H](O)CC(=O)O; pNA = O=[N+]([O-])c1ccc(N*)cc1; AMC = Cc1cc(=O)oc2cc(N*)ccc12; Isovaleryl = CC(C)CC(=O)*
# How the values were obtained:
# Assay type in all cases: biochemical
# [1] = molecular target: T1, DPRP-1 (Homo sapiens, UniProt Q6V1X1); assay: Inhibition of DPRP-1 by protease inhibitors (Ala-Pro-AMC fluorescence); conditions: for Residual activity (% of control) DPRP-1: preincubated 30 min at room temperature, Ala-Pro-AMC 100 μM
# T1 construct: DNA fragments encoding the full-length polypeptide DPRP-1 were amplified using PCR oligonucleotide primers; made in house; host or cells: PEAK or COS-1 cells, transient transfection
# T1 sequence (Q6V1X1 17-898): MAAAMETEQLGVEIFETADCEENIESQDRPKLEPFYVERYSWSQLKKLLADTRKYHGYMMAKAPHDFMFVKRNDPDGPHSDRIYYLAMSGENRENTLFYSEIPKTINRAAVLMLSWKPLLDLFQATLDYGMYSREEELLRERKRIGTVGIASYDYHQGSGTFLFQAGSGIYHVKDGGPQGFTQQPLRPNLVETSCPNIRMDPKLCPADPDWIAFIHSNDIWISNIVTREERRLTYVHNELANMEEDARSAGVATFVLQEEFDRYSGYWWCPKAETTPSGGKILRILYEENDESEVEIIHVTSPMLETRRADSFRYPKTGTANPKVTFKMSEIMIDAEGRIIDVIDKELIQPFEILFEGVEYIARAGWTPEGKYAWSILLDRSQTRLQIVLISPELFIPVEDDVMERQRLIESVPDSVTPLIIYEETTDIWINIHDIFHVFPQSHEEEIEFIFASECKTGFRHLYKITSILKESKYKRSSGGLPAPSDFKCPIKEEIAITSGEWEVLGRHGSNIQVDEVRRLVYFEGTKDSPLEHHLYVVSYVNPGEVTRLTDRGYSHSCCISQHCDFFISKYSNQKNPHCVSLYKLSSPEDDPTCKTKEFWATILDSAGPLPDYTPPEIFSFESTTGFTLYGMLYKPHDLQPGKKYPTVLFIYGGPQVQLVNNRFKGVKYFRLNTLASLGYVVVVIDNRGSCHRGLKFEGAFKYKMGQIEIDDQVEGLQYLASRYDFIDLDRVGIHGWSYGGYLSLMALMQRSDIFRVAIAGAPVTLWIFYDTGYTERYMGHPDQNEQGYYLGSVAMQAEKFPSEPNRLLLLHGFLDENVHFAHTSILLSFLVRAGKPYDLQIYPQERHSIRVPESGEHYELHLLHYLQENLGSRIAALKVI
# Experimental: (§1) The kinetic properties of recombinant DPRP-1 and DPRP-2 were determined in a continuous fluorimetric assay. Buffer, pH and temperature dependence optimization led to the following assay conditions: Enzyme assays were performed in 50 mM PBS, pH7.4 50 μl (50 μg/ml) of purified enzymes were mixed with 1 μl of different concentration of Ala-Pro-AMC (Enzyme Systems). Plates were then incubated at 37° C. for 30 min, and fluorescence was detected using a Wallac 1420 Fluorimeter with λex40355 and λem535.
# (§2) The two purified proteases and DPPIV were preincubated with inhibitors at room temperature for 30 min. Substrate, Ala-Pro-AMC (100 μM), was then added, and the fluorescence intensity was recorded as 60 readings during a 60 min period.
# [2] = molecular target: T2, DPPIV (Homo sapiens, UniProt P27487); assay: Inhibition of DPPIV by protease inhibitors (Ala-Pro-AMC fluorescence); conditions: for Residual activity (% of control) DPPIV: preincubated 30 min at room temperature, Ala-Pro-AMC 100 μM
# T2 sequence (P27487 whole entry): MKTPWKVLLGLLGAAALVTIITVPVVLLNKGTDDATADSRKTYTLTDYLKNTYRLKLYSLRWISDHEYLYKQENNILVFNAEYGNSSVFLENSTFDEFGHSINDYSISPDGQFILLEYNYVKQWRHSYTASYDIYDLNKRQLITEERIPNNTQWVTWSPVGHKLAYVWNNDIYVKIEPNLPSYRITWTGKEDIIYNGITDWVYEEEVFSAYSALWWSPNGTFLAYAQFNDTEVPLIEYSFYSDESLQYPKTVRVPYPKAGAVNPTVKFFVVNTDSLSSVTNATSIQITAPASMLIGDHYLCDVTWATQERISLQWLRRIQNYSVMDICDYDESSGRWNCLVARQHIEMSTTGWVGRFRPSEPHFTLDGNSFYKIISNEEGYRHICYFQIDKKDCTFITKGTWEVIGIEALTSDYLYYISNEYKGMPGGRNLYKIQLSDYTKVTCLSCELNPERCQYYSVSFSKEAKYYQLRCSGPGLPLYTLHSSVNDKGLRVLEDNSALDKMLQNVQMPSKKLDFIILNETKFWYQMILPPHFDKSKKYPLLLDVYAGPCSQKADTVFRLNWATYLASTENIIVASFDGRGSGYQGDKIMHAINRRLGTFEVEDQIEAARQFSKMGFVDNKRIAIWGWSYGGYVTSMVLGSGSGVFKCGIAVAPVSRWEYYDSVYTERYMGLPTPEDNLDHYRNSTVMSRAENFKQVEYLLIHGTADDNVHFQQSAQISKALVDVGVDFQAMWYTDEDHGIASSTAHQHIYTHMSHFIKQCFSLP
# Experimental: as §1, §2
# [3] = molecular target: T3, DPRP-2 (Homo sapiens, UniProt Q86TI2); assay: Inhibition of DPRP-2 by protease inhibitors (Ala-Pro-AMC fluorescence); conditions: for Residual activity (% of control) DPRP-2: preincubated 30 min at room temperature, Ala-Pro-AMC 100 μM
# T3 construct: DNA fragments encoding the full length polypeptide DPRP-2 were amplified using PCR oligonucleotide primers; made in house; host or cells: PEAK or COS-1 cells, transient transfection
# T3 sequence (Q86TI2 whole entry, the tested form may be a part): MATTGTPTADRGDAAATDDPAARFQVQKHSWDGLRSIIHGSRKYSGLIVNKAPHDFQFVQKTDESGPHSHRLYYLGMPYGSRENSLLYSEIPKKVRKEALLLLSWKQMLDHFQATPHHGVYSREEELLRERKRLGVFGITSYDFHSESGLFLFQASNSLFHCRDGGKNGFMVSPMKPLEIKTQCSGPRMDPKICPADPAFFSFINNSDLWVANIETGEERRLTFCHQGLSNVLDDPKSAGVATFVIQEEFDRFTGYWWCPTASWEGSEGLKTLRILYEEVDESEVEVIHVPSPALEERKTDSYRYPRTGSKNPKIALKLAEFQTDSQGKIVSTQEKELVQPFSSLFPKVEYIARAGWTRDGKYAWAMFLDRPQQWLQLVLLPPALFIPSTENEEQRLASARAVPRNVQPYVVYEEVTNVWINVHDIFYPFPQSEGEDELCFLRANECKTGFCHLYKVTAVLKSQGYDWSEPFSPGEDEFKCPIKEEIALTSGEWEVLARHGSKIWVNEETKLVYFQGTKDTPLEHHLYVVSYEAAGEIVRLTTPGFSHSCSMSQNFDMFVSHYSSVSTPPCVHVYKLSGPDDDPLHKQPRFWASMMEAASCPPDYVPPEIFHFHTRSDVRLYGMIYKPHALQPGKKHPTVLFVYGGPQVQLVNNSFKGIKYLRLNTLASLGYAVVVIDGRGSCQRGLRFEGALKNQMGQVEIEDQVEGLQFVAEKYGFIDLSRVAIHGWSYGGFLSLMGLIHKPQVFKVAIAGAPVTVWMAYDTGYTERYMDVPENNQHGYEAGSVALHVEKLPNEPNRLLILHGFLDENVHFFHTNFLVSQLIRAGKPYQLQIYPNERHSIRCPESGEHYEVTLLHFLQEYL
# Experimental: as §1, §2
# [4] = molecular target: T2, DPPIV; assay: Substrate specificity, DPPIV; conditions: substrate 125 μM, 30-minute incubation with enzyme
# Experimental: (§3) In addition to Ala-Pro-AMC, additional substrates tested also confirmed that DPRP-1 and DPRP-2 are dipeptidyl peptidases. The data were derived by determining the fluorescence change following a 30-minute incubation of the substrates (125 μM) with enzymes as a percentage of the fluorescence measured at Ala-Pro-AMC and Gly-Pro-AMC were the only good substrates among those tested.
# [5] = molecular target: T1, DPRP-1; assay: Substrate specificity, DPRP-1; conditions: substrate 125 μM, 30-minute incubation with enzyme
# Experimental: as §3
# [6] = molecular target: T3, DPRP-2; assay: Substrate specificity, DPRP-2; conditions: substrate 125 μM, 30-minute incubation with enzyme
# Experimental: as §3
# [7] = molecular target: T1, DPRP-1; assay: Continuous fluorimetric assay, kinetic properties of recombinant DPRP-1; conditions: substrate Ala-Pro-AMC; 50 mM PBS, pH7.4, 37° C., 30 min
# Experimental: as §1
# [8] = molecular target: T3, DPRP-2; assay: Continuous fluorimetric assay, kinetic properties of recombinant DPRP-2; conditions: substrate Ala-Pro-AMC; 50 mM PBS, pH7.4, 37° C., 30 min
# Experimental: as §1
# [9] = protease inhibitor panel of Table 5
compound,measurement,setting,value
OCCS [B-Mercaptoethonal],Residual activity (% of control) DPRP-1,[1]; inhibitor 100 mM,93.2 % of control
same,Residual activity (% of control) DPPIV,[2]; inhibitor 100 mM,98.0 % of control
same,Residual activity (% of control) DPRP-2,[3]; inhibitor 100 mM,84.0 % of control
C[C@H](N)C(=O)N[C@@H](Cc1ccccc1)C(=O)N1CCC[C@H]1C(=O)Nc1ccc([N+](=O)[O-])cc1 [Ala-Phe-Pro-pNA] (H-Ala-Phe-Pro-pNA),% Change in Fluorescence at 30 minutes DPPIV,[4],2.0%
same,% Change in Fluorescence at 30 minutes DPRP-1,[5],−4%
same,% Change in Fluorescence at 30 minutes DPRP-2,[6],−0.5%
Aprotinin,Residual activity (% of control) DPRP-1,[1]; inhibitor 5 μg/ml,77.5 % of control
same,Residual activity (% of control) DPPIV,[2]; inhibitor 5 μg/ml,80.2 % of control
same,Residual activity (% of control) DPRP-2,[3]; inhibitor 5 μg/ml,63.2 % of control
Cc1cc(=O)oc2cc(NC(=O)[C@@H]3CCCN3C(=O)CN)ccc12 [Gly-Pro-AMC] (H-Gly-Pro-{AMC}),% Change in Fluorescence at 30 minutes DPPIV,[4],444.0%
same,% Change in Fluorescence at 30 minutes DPRP-1,[5],341.5%
same,% Change in Fluorescence at 30 minutes DPRP-2,[6],205.0%
NCCc1ccc(S(=O)(=O)F)cc1 [AEBSF],Residual activity (% of control) DPRP-1,[1]; inhibitor 5 mM,29.6 % of control
same,Inhibition of DPRP-1 (in words),[1]; [9],strong inhibition
same,Residual activity (% of control) DPPIV,[2]; inhibitor 5 mM,21.1 % of control
same,Inhibition of DPPIV (in words),[2]; [9],strong inhibition
same,Residual activity (% of control) DPRP-2,[3]; inhibitor 5 mM,23.9 % of control
same,Inhibition of DPRP-2 (in words),[3]; [9],strong inhibition
CC(=O)N[C@@H](CC(C)C)C(=O)N[C@@H](CC(C)C)C(=O)N[C@H](C=O)CCCNC(=N)N [Leupeptin],Residual activity (% of control) DPRP-1,[1]; inhibitor 50 μg/ml,91.1 % of control
same,Residual activity (% of control) DPPIV,[2]; inhibitor 50 μg/ml,90.7 % of control
same,Residual activity (% of control) DPRP-2,[3]; inhibitor 50 μg/ml,90.4 % of control
Cc1cc(=O)oc2cc(NC(=O)[C@@H]3CCCN3C(=O)[C@H](C)N)ccc12 [Ala-Pro-AMC] (H-Ala-Pro-{AMC}),% Change in Fluorescence at 30 minutes DPPIV,[4],379.0%
same,% Change in Fluorescence at 30 minutes DPRP-1,[5],239.0%
same,% Change in Fluorescence at 30 minutes DPRP-2,[6],127.5%
same,Km,[7],208 µM
same,Km,[8],161 µM
O=C(Nc1ccc([N+](=O)[O-])cc1)[C@@H]1CCCN1 [Pro-pNA],% Change in Fluorescence at 30 minutes DPPIV,[4],0.0%
same,% Change in Fluorescence at 30 minutes DPRP-1,[5],−1%
same,% Change in Fluorescence at 30 minutes DPRP-2,[6],−2.5%
C[C@H](NC(=O)[C@@H](N)CCCCN)C(=O)Nc1ccc([N+](=O)[O-])cc1 [Lys-Ala-pNA] (H-Lys-Ala-pNA),% Change in Fluorescence at 30 minutes DPPIV,[4],0.5%
same,% Change in Fluorescence at 30 minutes DPRP-1,[5],2.5%
same,% Change in Fluorescence at 30 minutes DPRP-2,[6],0.5%
O=C(O)CN(CCN(CC(=O)O)CC(=O)O)CC(=O)O [EDTA],Residual activity (% of control) DPRP-1,[1]; inhibitor 2 mM,91.5 % of control
same,Residual activity (% of control) DPPIV,[2]; inhibitor 2 mM,93.5 % of control
same,Residual activity (% of control) DPRP-2,[3]; inhibitor 2 mM,86.0 % of control
NCC(=O)N[C@@H](CCCN=C(N)N)C(=O)Nc1ccc([N+](=O)[O-])cc1 [Gly-Arg-pNA] (H-Gly-Arg-pNA),% Change in Fluorescence at 30 minutes DPPIV,[4],0.0%
same,% Change in Fluorescence at 30 minutes DPRP-1,[5],−4.5%
same,% Change in Fluorescence at 30 minutes DPRP-2,[6],−0.5%
C[C@H](N)C(=O)N1CCC[C@H]1C(=O)Nc1ccc([N+](=O)[O-])cc1 [Ala-Pro-pNA] (H-Ala-Pro-pNA),% Change in Fluorescence at 30 minutes DPPIV,[4],29.5%
same,% Change in Fluorescence at 30 minutes DPRP-1,[5],45.5%
same,% Change in Fluorescence at 30 minutes DPRP-2,[6],44.0%
O[C@@H](CS)[C@@H](O)CS [DTT],Residual activity (% of control) DPRP-1,[1]; inhibitor 2 mM,100.1 % of control
same,Residual activity (% of control) DPPIV,[2]; inhibitor 2 mM,98.3 % of control
same,Residual activity (% of control) DPRP-2,[3]; inhibitor 2 mM,94.8 % of control
CC(C)CC(=O)N[C@H](C(=O)N[C@H](C(=O)N[C@@H](CC(C)C)[C@@H](O)CC(=O)N[C@@H](C)C(=O)N[C@@H](CC(C)C)[C@@H](O)CC(=O)O)C(C)C)C(C)C [Pepstatin] (Isovaleryl-VV[Sta]A[Sta]-OH),Residual activity (% of control) DPRP-1,[1]; inhibitor 2 μg/ml,97.3 % of control
same,Residual activity (% of control) DPPIV,[2]; inhibitor 2 μg/ml,93.5 % of control
same,Residual activity (% of control) DPRP-2,[3]; inhibitor 2 μg/ml,95.0 % of control
